Test results from US11944605B2, “Rapamycin analogs and uses thereof” (Janssen Pharmaceutica NV, priority 2018, dated 2024).
“Also recorded” adds a separate entry of the source. Like-named read-outs stand apart in the source and are kept apart here. Values belong to the molecule of their own block, whether it stands above or below them.

Assays:
[1] = Glucose tolerance (ipGTT) during chronic treatment in lean C57Bl/6 mice; assay type: in vivo; details: chronic treatment 15 days, I-29 10 mg/kg PO, rapamycin 10 mg/kg IP
Protocol: Assessment of Effect of Chronic Treatment with I-29 on Glucose Tolerance and Insulin Sensitivity in Lean C57Bl/6 Mice
C57Bl/6 mice (n=12; 8 weeks of age) were randomized and baseline measurements (weight, fasting glucose, and fasting insulin) were measured four (4) days prior to the administration of compounds or vehicle. Animals were then treated with I-29 (10 mg/kg PO), rapamycin (10 mg/kg IP) or vehicle (PO or IP) for 19 days. On day 7 and 14 animals were weighed and fed glucose and fed insulin levels were evaluated. Animals were fasted overnight on day 14 and on day 15 fasting insulin and an intraperitoneal glucose tolerance test (ipGTT) were evaluated. On day 19 animals were sacrificed one (1) hour after compound or vehicle administration. Tissues were harvested for evaluating compound levels and pharmacodynamics.

Lmn−/− mice = details: short-term treatment; cited from earlier work
IFN-γ production = IFN-γ production in allogenic mixed lymphocyte reaction; assay type: cell-based; details: for IC50: read-out: IFN-γ Inhibition IC50s
Protocol: Assessment of Effect on IFN-γ Production in Allogenic Mixed Lymphocyte Reaction
The effect of rapamycin, everolimus, I-29, and I-117 on IFN-y production was evaluated in an allogenic mixed lymphocyte reaction (E.g., Eleftheriadis, T. et al., Int. J. Mol. Med., 37(5): 1412-20 (2016) https://doi.org/10.3892/ijmm.2016.2547).

[2] = system: glucose uptake in human adipocytes; details: 0.01 μM; cited from earlier work
[3] = Pharmacokinetic properties in C57Bl/6 mice; assay type: in vivo; details: for half-life: read-out: Terminal T1/2 (converted)
Protocol: Pharmacokinetic Properties
The pharmacokinetic properties of compounds of the present invention were evaluated in C57Bl/6 mice and compared with rapamycin. Animals were fasted overnight prior to administration of I-29 or rapamycin (1 mg/kg IV, 10 mg/kg PO, or 2 mg/kg IP). Animals were bled at time intervals for up to 48 hours following administration of compounds. Whole blood from each mouse was indivisually collected in polypropylene tubes and immediately centrifuged. Alloquates of the separated plasma were promptly prepared for HPCL analysis.

Akt phosphorylation = details: mice treated daily for 1 week; cited from earlier work
[4] = system: Akt (an mTORC2 substrate); details: cited from earlier work
[5] = system: T389 of S6K1 (an mTORC1 substrate); details: PC3, HEK-293T, HeLa, and H460 cells, 1 or 24 hour treatments; cited from earlier work
[6] = system: AKT (PKB) Ser473 phosphorylation; details: human adipocytes, 0.01 μM; cited from earlier work
[7] = system: 4E-BP1 phosphorylation in PC3 cells; assay: Western blot, 4E-BP1 phosphorylation in PC3 cells; assay type: cell-based; details: 24 hours
[8] = system: mTORC1 pathway (pS6K1 T389) in PC3 cells; assay: Western blot, mTORC1 pathway (pS6K1) in PC3 cells; assay type: cell-based
Outline: (§1)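 Triton lysates analysed by Western blot for pS6K1 and pAkt, detected with IRDye 800 anti-rabbit secondary on a Li-Cor imager.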

[9] = system: mTORC2 pathway (Akt phosphorylation) in PC3 cells; assay: Western blot, mTORC2 pathway (pAkt) in PC3 cells; assay type: cell-based; details: for inhibition of mTORC2 (Akt phosphorylation): 24 hours
Outline: as §1

[10] = system: mTORC1 pathway in tuberous sclerosis 2 (TSC2) positive (TSC+/+) MEF cells; assay: Western blot, mTORC1 pathway in TSC+/+ MEF cells; assay type: cell-based, mouse
Protocol: (§2) The methods employed were substantially similar to those described above. Compounds were evaluated in PC3 cells, Jurkat cells, wild-type mouse embryotic fibroblast (MEF) cells, tuberous sclerosis 2 (TSC2) negative (TSC −/−) MEF cells, and tuberous sclerosis 2 (TSC2) positive (TSC +/+) MEF cells. Cells were incubated with compounds of the present invention for various time periods (e.g., 5 minutes, 15 minutes, 30 minutes, 90 minutes, 24 hours, or 48 hours), and evaluated according to known methodologies, such as those herein described.

[11] = system: mTORC1 pathway in tuberous sclerosis (TSC2) negative (TSC−/−) MEF cells; assay: Western blot, mTORC1 pathway in TSC−/− MEF cells; assay type: cell-based, mouse
Protocol: as §2

mTORC1 over mTORC2 = assay: mTORC1 selectivity over mTORC2 at 24 hrs (Western blot based pS6K1 and pAKT assay); assay type: cell-based; details: 24 hrs
[12] = system: mTORC2 (Akt phosphorylation) in wild-type MEF cells; assay: Western blot, mTORC2 pathway (pAkt) in wild-type MEF cells; assay type: cell-based, mouse; details: 24 hours
Protocol: as §2

[13] = system: mTORC2 (Akt phosphorylation) in TSC−/− MEF cells; assay: Western blot, mTORC2 pathway (pAkt) in TSC−/− MEF cells; assay type: cell-based, mouse
Protocol: as §2

[14] = system: pS6K1 (p-p70 S6 Kinase (Thr389)) in MCF-7 cells; assay: AlphaLISA Ultra pS6K1 Assay; assay type: cell-based; details: Homo sapiens, 1.5 h; MCF7 cells, 90 min
Outline: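 AlphaLISA Ultra read-out (acceptor beads 2 h, then donor beads 2 h) on thawed lysates of MCF-7 cells. Cells had 20–24 h after seeding and a 2 h medium change, then 90 min of compound exposure at 0.5% final DMSO, with lysates stored at −80 °C.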

[15] = system: mTORC1 pathway in wild-type MEF cells; assay: Western blot, mTORC1 pathway in wild-type MEF cells; assay type: cell-based, mouse
Protocol: as §2

[16] = system: mTORC2 (Akt phosphorylation) in Jurkat cells; assay: Western blot, mTORC2 pathway (pAkt) in Jurkat cells; assay type: cell-based; details: 24 hrs
Protocol: as §2

[17] = system: mTORC1 pathway in Jurkat cells; assay: Western blot, mTORC1 pathway in Jurkat cells; assay type: cell-based; details: 24 hrs
Protocol: as §2

[18] = system: mTORC2 (Akt phosphorylation) in TSC+/+ MEF cells; assay: Western blot, mTORC2 pathway (pAkt) in TSC+/+ MEF cells; assay type: cell-based, mouse; details: 90 minutes
Protocol: as §2

[19] = system: 4E-BP1 phosphorylation in TSC+/+ MEF cells; assay: Western blot, 4E-BP1 phosphorylation in TSC+/+ MEF cells; assay type: cell-based, mouse; details: 24 hours
Protocol: as §2

Compound: CO[C@H]1C[C@@H]2CC[C@@H](C)[C@@](O)(O2)C(=O)C(=O)N2CCCC[C@H]2C(=O)O[C@H]([C@H](C)C[C@@H]2CC[C@@H](O)[C@H](OC)C2)CC(=O)[C@H](C)/C=C(\C)[C@@H](O)[C@@H](OC)C(=O)[C@H](C)C[C@H](C)/C=C/C=C/C=C/1C [Rapamycin, rapamycin]
glucose intolerance in intraperitoneal glucose tolerance test (ipGTT) [1]: induced glucose intolerance | enhanced survival (Lmn−/− mice): ~50% | inhibition of IFN-γ production (IFN-γ production): significantly inhibited | IC50 (IFN-γ production): 2.4 nM | glucose uptake [2]: reduced | F ([3]; 2 mg/kg IP): 35.1% | F ([3]; 10 mg/kg PO): 0.8% | AUC(0-inf) ([3]; mouse, plasma, 1 mg/kg IV): 3630 ng·h/mL | AUC(0-t) ([3]; mouse, plasma, 1 mg/kg IV): 3620 ng·h/mL | MRT inf ([3]; mouse, plasma, 1 mg/kg IV): 6.27 h | clearance ([3]; mouse, plasma, 1 mg/kg IV): 4.6 mL/min/kg | half-life ([3]; mouse, plasma, 1 mg/kg IV): 8.35 h | Vd ([3]; mouse, plasma, 1 mg/kg IV, read-out: Vss): 1.73 L/kg | AUC(0-inf) ([3]; mouse, plasma, 2 mg/kg IP): 2540 ng·h/mL | AUC(0-t) ([3]; mouse, plasma, 2 mg/kg IP): 2480 ng·h/mL | Cmax ([3]; mouse, plasma, 2 mg/kg IP): 614 ng/mL | Tmax ([3]; mouse, plasma, 2 mg/kg IP): 0.25 h | half-life ([3]; mouse, plasma, 2 mg/kg IP): 4.8 h | AUC(0-t) ([3]; mouse, plasma, 10 mg/kg PO): 292 ng·h/mL | Cmax ([3]; mouse, plasma, 10 mg/kg PO): 52.8 ng/mL | Tmax ([3]; mouse, plasma, 10 mg/kg PO): 3 h | Akt phosphorylation in the thymus, adipose tissue, heart, and lung (Akt phosphorylation): decreased | inhibition of pAKT ([4]; HEK-293T cells): Partial inhibition | Akt phosphorylation ([4]; HeLa cells): increase | Akt phosphorylation ([4]; PC3 cells): strongly decreased | S6K1 phosphorylation [5]: inhibited | AKT (PKB) Ser473 phosphorylation [6]: reduced | inhibition of 4E-BP1 phosphorylation [7]: no inhibition | inhibition of the mTORC1 pathway (pS6K1) ([8]; PC3 cells, 24 and 48 hours): significant reduction; also recorded: strong inhibition | inhibition of the mTORC1 pathway ([8]; PC3 cells, 30, 15, or 5 minutes): time dependent inhibition | inhibition of the mTORC1 pathway ([8]; PC3 cells, 90 minutes): strong inhibition | inhibition of the mTORC1 pathway ([8]; PC3 cells, 24 hours): strong inhibition | inhibition of the mTORC2 pathway (Akt phosphorylation) ([9]; 24 and 48 hours): inhibition; also recorded: inhibited | inhibition of mTORC2 (Akt phosphorylation) [9]: dose dependent inhibition | inhibition of the mTORC1 pathway ([10]; 90 minutes): strong inhibition | inhibition of the mTORC1 pathway ([10]; 24 hours): strong inhibition | inhibition of the mTORC1 pathway ([11]; 24 hours): strong inhibition

IC50 (IFN-γ production): > 3000 nM | IC50 [14]: < 0.1 nM
Compound: CO[C@@H]1C[C@H](C[C@@H](C)[C@@H]2CC(=O)[C@H](C)/C=C(\C)[C@@H](O)[C@@H](OC)C(=O)[C@H](C)C[C@H](C)/C=C/C=C/C=C(\C)[C@@H](OCCOCCO)C[C@@H]3CC[C@@H](C)[C@@](O)(O3)C(=O)C(=O)N3CCCC[C@H]3C(=O)O2)CC[C@H]1OCCO [I-117, (21E,23E,25E,26E,34R,35S,36R,37R,39S,41S,43S,44S,45R,46R, 55R)-45,55-dihydroxy-43-[2-(2-hydroxyethoxy)ethoxy]-44-[(1R)-2-[(1S,3R, 4R)-4-(2-hydroxyethoxy)-3-methoxy-cyclohexyl]-1-methyl-ethyl]-46-methoxy-34,35,36,37,47,48-hexamethyl-66, 67-dioxa-56-azatricyclohexatriaconta-21,23,25(47),26(48)-tetraene-49, 50,51,52,53-pentone]
inhibition of IFN-γ production (IFN-γ production): did not inhibit | mTORC1 selective @ 24 hrs (mTORC1 over mTORC2): YES | inhibition of mTORC2 (Akt phosphorylation) [12]: do not inhibit | inhibition of mTORC2 (Akt phosphorylation) ([13]; 90 minutes): do not inhibit | inhibition of mTORC2 (Akt phosphorylation) ([13]; 24 hours): do not inhibit | inhibition of 4E-BP1 phosphorylation [7]: no inhibition | inhibition of the mTORC1 pathway ([8]; PC3 cells, 24 hours): strong inhibition | inhibition of the mTORC1 pathway ([15]; 24 hours): moderate inhibition; also recorded: strong inhibition | inhibition of mTORC2 (Akt phosphorylation) [16]: do not inhibit | inhibition of mTORC2 (Akt phosphorylation) [9]: does not inhibit | inhibition of the mTORC1 pathway [17]: strong inhibition | inhibition of the mTORC1 pathway ([10]; 90 minutes): moderate concentration dependent inhibition | inhibition of mTORC2 (Akt phosphorylation) [18]: do not inhibit | inhibition of the mTORC1 pathway ([11]; 90 minutes): strong inhibition | inhibition of the mTORC1 pathway ([11]; 24 hours): strong inhibition

IC50 (IFN-γ production): 15.2 nM
Compound: CO[C@H]1C[C@@H]2CC[C@@H](C)[C@@](O)(O2)C(=O)C(=O)N2CCCC[C@H]2C(=O)O[C@H]([C@H](C)C[C@@H]2CC[C@@H](OCCO)[C@H](OC)C2)CC(=O)[C@H](C)/C=C(\C)[C@@H](O)[C@@H](OC)C(=O)[C@H](C)C[C@H](C)/C=C/C=C/C=C/1C [Everolimus, everolimus, reference compound]
inhibition of IFN-γ production (IFN-γ production): significantly inhibited | inhibition of 4E-BP1 phosphorylation [7]: no inhibition | inhibition of the mTORC1 pathway ([8]; PC3 cells, 90 minutes): strong inhibition | inhibition of the mTORC1 pathway ([8]; PC3 cells, 24 hours): strong inhibition | inhibition of the mTORC1 pathway ([15]; 90 minutes): strong inhibition | inhibition of the mTORC1 pathway ([15]; 24 hours): strong inhibition | inhibition of mTORC2 (Akt phosphorylation) [9]: dose dependent inhibition | inhibition of 4E-BP1 phosphorylation [19]: no inhibition | inhibition of the mTORC1 pathway [17]: strong inhibition | inhibition of the mTORC1 pathway ([10]; 90 minutes): strong inhibition | inhibition of the mTORC1 pathway ([10]; 24 hours): strong inhibition | inhibition of the mTORC1 pathway ([11]; 90 minutes): strong inhibition | inhibition of the mTORC1 pathway ([11]; 24 hours): strong inhibition
